Experimental data from patent US20230062100A1, “SUBSTITUTED AMINOQUINOLONES AS DGKALPHA INHIBITORS FOR IMMUNE ACTIVATION” (Bayer Aktiengesellschaft, priority 2019, published 2023).

Biological target: DGKα (Homo sapiens, UniProt P23743)
Assay: Human DGKα kinase activity inhibition assay (ADP-Glo)
Format: biochemical
Conditions: in vitro human DGKα kinase activity inhibition assay
How it was run: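 C-terminally FLAG-tagged full-length human DGKα from baculovirus/insect cells (typically ~0.1 nM) phosphorylated 1,2-dioleoyl-sn-glycerol in octyl-β-D-glucopyranoside micelles in MOPS pH 7.4. ADP formed was quantified by ADP-Glo luminescence after 1 h ATP depletion at 22 °C.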

Sequence of DGKα (P23743 with tags, fused parts or gaps): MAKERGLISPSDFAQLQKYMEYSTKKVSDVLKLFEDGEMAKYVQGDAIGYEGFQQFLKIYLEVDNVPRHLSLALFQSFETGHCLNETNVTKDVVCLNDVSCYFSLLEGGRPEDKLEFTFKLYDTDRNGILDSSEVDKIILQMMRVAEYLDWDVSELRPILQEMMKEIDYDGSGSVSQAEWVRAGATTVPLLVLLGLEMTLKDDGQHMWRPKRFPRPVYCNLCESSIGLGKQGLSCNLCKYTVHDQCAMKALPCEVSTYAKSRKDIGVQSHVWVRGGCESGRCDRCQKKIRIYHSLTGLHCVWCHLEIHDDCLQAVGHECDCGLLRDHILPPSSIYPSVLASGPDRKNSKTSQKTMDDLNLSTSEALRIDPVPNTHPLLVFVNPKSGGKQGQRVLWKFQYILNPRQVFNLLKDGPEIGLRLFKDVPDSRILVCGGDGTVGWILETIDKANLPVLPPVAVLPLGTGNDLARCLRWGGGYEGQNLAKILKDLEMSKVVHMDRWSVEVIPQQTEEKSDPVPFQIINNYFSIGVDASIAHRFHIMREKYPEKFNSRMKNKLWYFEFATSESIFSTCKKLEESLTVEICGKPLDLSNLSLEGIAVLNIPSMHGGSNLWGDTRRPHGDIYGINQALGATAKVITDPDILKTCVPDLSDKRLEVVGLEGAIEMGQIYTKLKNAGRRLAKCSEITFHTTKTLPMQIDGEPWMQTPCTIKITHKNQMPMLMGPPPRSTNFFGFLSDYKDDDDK

SMILES	IC50 [nM]
CN1CCN(c2ccc3c(N4CCC(Oc5cccc(Cl)c5)CC4)c(C#N)c(=O)n(C)c3c2)CC1 [Example 80, 4-[4-(3-chlorophenoxy)piperidin-1-yl]-1-methyl-7-(4-methylpiperazin-1-yl)-2-oxo-1,2-dihydroquinoline-3-carbonitrile]	534
COCCOc1ccc2c(N3CCC(Oc4ccc(OC(F)(F)F)cc4)CC3)c(C#N)c(=O)n(C)c2c1 [Example 81, 7-(2-methoxyethoxy)-1-methyl-2-oxo-4-{4-[4-(trifluoromethoxy)phenoxy]piperidin-1-yl}-1,2-dihydroquinoline-3-carbonitrile]	3
Cn1c(=O)c(C#N)c(N2CCC(Oc3ccc(OC(F)(F)F)cc3)CC2)c2ccc(N3CCCC3=O)cc21 [Example 82, 1-methyl-2-oxo-7-(2-oxopyrrolidin-1-yl)-4-{4-[4-(trifluoromethoxy)phenoxy]piperidin-1-yl}-1,2-dihydroquinoline-3-carbonitrile]	12
Cn1c(=O)c(C#N)c(N2CCC(Sc3ccccc3)CC2)c2ccc(N3CCCC3=O)cc21 [Example 83, 1-methyl-2-oxo-7-(2-oxopyrrolidin-1-yl)-4-[4-(phenylsulfanyl)piperidin-1-yl]-1,2-dihydroquinoline-3-carbonitrile]	14
Cn1c(=O)c(C#N)c(N2CCC(Oc3ccc(F)cc3)CC2)c2ccc(N3CCCC3=O)cc21 [Example 84, 4-[4-(4-fluorophenoxy)piperidin-1-yl]-1-methyl-2-oxo-7-(2-oxopyrrolidin-1-yl)-1,2-dihydroquinoline-3-carbonitrile]	25
Cn1c(=O)c(C#N)c(N2CCC(Oc3ccc(Cl)cc3)CC2)c2ccc(N3CCCC3=O)cc21 [Example 85, 4-[4-(4-chlorophenoxy)piperidin-1-yl]-1-methyl-2-oxo-7-(2-oxopyrrolidin-1-yl)-1,2-dihydroquinoline-3-carbonitrile]	28
Cn1c(=O)c(C#N)c(N2CCC(Oc3ccc(C(F)(F)F)cc3)CC2)c2ccc(N3CCCC3=O)cc21 [Example 86, 1-methyl-2-oxo-7-(2-oxopyrrolidin-1-yl)-4-{4-[4-(trifluoromethyl)phenoxy]piperidin-1-yl}-1,2-dihydroquinoline-3-carbonitrile]	32
Cn1c(=O)c(C#N)c(N2CCC(Oc3ccc(C(F)(F)F)cc3)CC2)c2ccc(C3CC3)cc21 [Example 87, 7-cyclopropyl-1-methyl-2-oxo-4-{4-[4-(trifluoromethyl)phenoxy]piperidin-1-yl}-1,2-dihydroquinoline-3-carbonitrile]	40
Cc1ccc2c(N3CCC(Oc4ccccc4)CC3)c(C#N)c(=O)n(C)c2c1 [Example 88, 1,7-dimethyl-2-oxo-4-(4-phenoxypiperidin-1-yl)-1,2-dihydroquinoline-3-carbonitrile]	5.8
COc1ccc2c(N3CCC(Oc4ccccc4)CC3)c(C#N)c(=O)n(C)c2c1 [Example 89, 7-methoxy-1-methyl-2-oxo-4-(4-phenoxypiperidin-1-yl)-1,2-dihydroquinoline-3-carbonitrile]	4.7
COc1ccc2c(N3CCC(Sc4ccccc4)CC3)c(C#N)c(=O)n(C)c2c1 [Example 90, 7-methoxy-1-methyl-2-oxo-4-[4-(phenylsulfanyl)piperidin-1-yl]-1,2-dihydroquinoline-3-carbonitrile]	1.7
Cn1c(=O)c(C#N)c(N2CCC(Cc3ccccc3)CC2)c2ccccc21 [Example 91, 4-(4-benzylpiperidin-1-yl)-1-methyl-2-oxo-1,2-dihydroquinoline-3-carbonitrile]	4.5
Cn1c(=O)c(C#N)c(N2CCC(Cc3ccc(F)cc3)CC2)c2ccccc21 [Example 92, 4-{4-[(4-fluorophenyl)methyl]piperidin-1-yl}-1-methyl-2-oxo-1,2-dihydroquinoline-3-carbonitrile]	6.2
Cn1c(=O)c(C#N)c(N2CCC(Cc3nc4ccccc4s3)CC2)c2ccccc21 [Example 93, 4-{4-[(1,3-benzothiazol-2-yl)methyl]piperidin-1-yl}-1-methyl-2-oxo-1,2-dihydroquinoline-3-carbonitrile]	39
COc1ccccc1CC1CCN(c2c(C#N)c(=O)n(C)c3ccccc23)CC1 [Example 94, 4-{4-[(2-methoxyphenyl)methyl]piperidin-1-yl}-1-methyl-2-oxo-1,2-dihydroquinoline-3-carbonitrile]	28
Cn1c(=O)c(C#N)c(N2CCC(Cc3ccc(C#N)cc3)CC2)c2ccccc21 [Example 95, 4-{4-[(4-cyanophenyl)methyl]piperidin-1-yl}-1-methyl-2-oxo-1,2-dihydroquinoline-3-carbonitrile]	15
Cn1c(=O)c(C(N)=O)c(N2CCC(Oc3ccc(OC(F)(F)F)cc3)CC2)c2ccc(N3CCCC3=O)cc21 [Example 96, 1-methyl-2-oxo-7-(2-oxopyrrolidin-1-yl)-4-{4-[4-(trifluoromethoxy)phenoxy]piperidin-1-yl}-1,2-dihydroquinoline-3-carboxamide]	12
Cn1c(=O)c(C(N)=O)c(N2CCC(Oc3ccc(Cl)cc3)CC2)c2ccc(N3CCCC3=O)cc21 [Example 97, 4-[4-(4-chlorophenoxy)piperidin-1-yl]-1-methyl-2-oxo-7-(2-oxopyrrolidin-1-yl)-1,2-dihydroquinoline-3-carboxamide]	122

SMILES	IC50 [nM]
Cn1c(=O)c(C(N)=O)c(N2CCC(Oc3ccc(OC(F)(F)F)cc3)CC2)c2ccc(Cl)cc21 [Example 98, 7-chloro-1-methyl-2-oxo-4-{4-[4-(trifluoromethoxy)phenoxy]piperidin-1-yl}-1,2-dihydroquinoline-3-carboxamide]	1.9
Cn1c(=O)c(C(N)=O)c(N2CCC(Oc3ccc(OC(F)(F)F)cc3)CC2)c2ccc(F)cc21 [Example 99, 7-fluoro-1-methyl-2-oxo-4-{4-[4-(trifluoromethoxy)phenoxy]piperidin-1-yl}-1,2-dihydroquinoline-3-carboxamide]	1.2
Cn1c(=O)c(C#N)c(N2CCC(OCc3ccccc3)CC2)c2ccccc21 [Example 106, 4-[4-(benzyloxy)piperidin-1-yl]-1-methyl-2-oxo-1,2-dihydroquinoline-3-carbonitrile]	8.3
Cc1ccc(COC2CCN(c3c(C#N)c(=O)n(C)c4ccccc34)CC2)cc1 [Example 107, 1-methyl-4-{4-[(4-methylphenyl)methoxy]piperidin-1-yl}-2-oxo-1,2-dihydroquinoline-3-carbonitrile]	7.2
Cc1cccc(COC2CCN(c3c(C#N)c(=O)n(C)c4ccccc34)CC2)c1 [Example 108, 1-methyl-4-{4-[(3-methylphenyl)methoxy]piperidin-1-yl}-2-oxo-1,2-dihydroquinoline-3-carbonitrile]	10
COc1ccc(COC2CCN(c3c(C#N)c(=O)n(C)c4ccccc34)CC2)cc1 [Example 109, 4-{4-[(4-methoxyphenyl)methoxy]piperidin-1-yl}-1-methyl-2-oxo-1,2-dihydroquinoline-3-carbonitrile]	16
Cn1c(=O)c(C#N)c(N2CCC(OCc3ccc(F)cc3)CC2)c2ccccc21 [Example 110, 4-{4-[(4-fluorophenyl)methoxy]piperidin-1-yl}-1-methyl-2-oxo-1,2-dihydroquinoline-3-carbonitrile]	5.3
Cn1c(=O)c(C#N)c(N2CCC(OCc3ccccc3F)CC2)c2ccccc21 [Example 111, 4-{4-[(2-fluorophenyl)methoxy]piperidin-1-yl}-1-methyl-2-oxo-1,2-dihydroquinoline-3-carbonitrile]	4.8
Cn1c(=O)c(C#N)c(N2CCC(OCc3cccc(F)c3)CC2)c2ccccc21 [Example 113, 4-{4-[(3-fluorophenyl)methoxy]piperidin-1-yl}-1-methyl-2-oxo-1,2-dihydroquinoline-3-carbonitrile]	12
Cc1ccccc1COC1CCN(c2c(C#N)c(=O)n(C)c3ccccc23)CC1 [Example 114, 1-methyl-4-{4-[(2-methylphenyl)methoxy]piperidin-1-yl}-2-oxo-1,2-dihydroquinoline-3-carbonitrile]	16
COc1cccc(COC2CCN(c3c(C#N)c(=O)n(C)c4ccccc34)CC2)c1 [Example 115, 4-{4-[(3-methoxyphenyl)methoxy]piperidin-1-yl}-1-methyl-2-oxo-1,2-dihydroquinoline-3-carbonitrile]	29
Cn1c(=O)c(C#N)c(N2CCC(COc3ccc(Cl)cc3)CC2)c2ccccc21 [Example 116, 4-{4-[(4-chlorophenoxy)methyl]piperidin-1-yl}-1-methyl-2-oxo-1,2-dihydroquinoline-3-carbonitrile]	6.4
COc1ccccc1COC1CCN(c2c(C#N)c(=O)n(C)c3ccccc23)CC1 [Example 117, 4-{4-[(2-methoxyphenyl)methoxy]piperidin-1-yl}-1-methyl-2-oxo-1,2-dihydroquinoline-3-carbonitrile]	6
Cn1c(=O)c(C#N)c(N2CCC(COc3ccccc3)CC2)c2ccccc21 [Example 118, 1-methyl-2-oxo-4-[4-(phenoxymethyl)piperidin-1-yl]-1,2-dihydroquinoline-3-carbonitrile]	123
Cn1c(=O)c(C#N)c(N2CCC(COc3cccc(Cl)c3)CC2)c2ccccc21 [Example 119, 4-{4-[(3-chlorophenoxy)methyl]piperidin-1-yl}-1-methyl-2-oxo-1,2-dihydroquinoline-3-carbonitrile]	34
Cn1c(=O)c(C#N)c(N2CCC(COc3ccccc3Cl)CC2)c2ccccc21 [Example 120, 4-{4-[(2-chlorophenoxy)methyl]piperidin-1-yl}-1-methyl-2-oxo-1,2-dihydroquinoline-3-carbonitrile]	51
Cn1c(=O)c(C(N)=O)c(N2CCC(OCc3ccccc3)CC2)c2ccccc21 [Example 121, 4-[4-(benzyloxy)piperidin-1-yl]-1-methyl-2-oxo-1,2-dihydroquinoline-3-carboxamide]	16
Cc1ccc(COC2CCN(c3c(C(N)=O)c(=O)n(C)c4ccccc34)CC2)cc1 [Example 122, 1-methyl-4-{4-[(4-methylphenyl)methoxy]piperidin-1-yl}-2-oxo-1,2-dihydroquinoline-3-carboxamide]	7.1
